Measured values published in patent US20070148051A1, “Chemical volatilization device” (Dainihon Jochugiku Co., Ltd., priority 2005, published 2007).

Columns and labels:
[1] = test system: harmful insects such as mosquitoes and midges; assay: Experiment Example 2: device suspended in a doghouse, insecticidal effects; format: in vivo; settings: 70 mg Compound A retained, 1400 rpm, 8 hours per day for about 30 days
Excerpt: Two-dimensional mesh-like chemical-retaining fibers 2 were woven using twisted polyester fibers, and supportive connecting chemical-retaining fibers 3 (upper and lower widths: 2.5 mm), comprised of nylon fibers, were arranged in a state in which a columnar structure and a diagonal structure were overlapped based on the constitution of the aforementioned (8) shown in FIG. 8 to produce a disc-like chemical retainer 1 having an overall thickness in the vertical direction of 4.2 mm and an outer diameter of 4.5 cm.
70 mg of Compound A (2,3,5,6-tetrafluorobenzyl-2,2-dimethyl-3-(2,2-dichlorovinyl)cyclopropane carboxylate) was retained instead of the chemical used in Experiment Example 1 and activated for 240 hours.
This chemical retainer 1 was housed in the protective case 4 of Experiment Example 1, activated for 8 hours per day by suspending in a doghouse at a rotating speed of 1400 rpm, and said activation was continued for about 30 days.

mosquitoes = assay: Experiment Example 1: chemical volatilization device activated, mosquito control; format: in vivo; settings: 40 mg Compound C dissolved in kerosene retained in chemical retainer, 1200 rpm, over about 120 hours
Excerpt: Two-dimensional mesh-like chemical-retaining fibers 2 were woven on both the upper and lower sides using twisted polyester fibers, and supportive connecting chemical-retaining fibers 3 (upper and lower widths: 3 mm), comprised of polyester fibers, were arranged between both sides based on a diagonal structure according to the constitution of the aforementioned (6) as shown in FIG. 6 to produce a disc-like chemical retainer 1 having an overall thickness in the vertical direction of 4.0 mm and an outer diameter of 4.0 cm.
The chemical retainer 1 was housed in a protective case 4 made of polycarbonate (outer diameter: 5.0 cm, thickness: 8 mm), and the protective case 4 employed a roughly circular cross-section for circumferential retaining frames 41.
In this type of chemical retainer 1, a chemical solution, in which 40 mg of Compound C (4-methoxymethyl-2,3,5,6-tetrafluorobenzyl-2,2-dimethyl-3-(1-propenyl)cyclopropane carboxylate) were dissolved in kerosene, was retained in said chemical retainer 1, and after housing in the protective case 4, was activated for 120 hours at a rotating speed of 1200 rpm.

Row | Structure (SMILES) | insecticidal effects against harmful insects during continuous activation [1] | control of mosquitoes during activation (mosquitoes)
1 | CC1(C)C(C=C(Cl)Cl)C1C(=O)OCc1c(F)c(F)cc(F)c1F (centres unmarked) [Compound A, 2,3,5,6-tetrafluorobenzyl-2,2-dimethyl-3-(2,2-dichlorovinyl) cyclopropane carboxylate] | stable insecticidal effects | –
2 | CC=CC1C(C(=O)OCc2c(F)c(F)c(COC)c(F)c2F)C1(C)C (centres unmarked) [Compound C, 4-methoxymethyl-2,3,5,6-tetrafluorobenzyl-2,2-dimethyl-3-(1-propenyl)cyclopropane carboxylate] | – | effectively controlled
